# Results from patent US20090042725A1, “Fungicidal Mixtures Based on 3,5-Disubstituted N-Biphenyl-Pyrazolcarboxamides” (BASF Aktiengesellschaft, priority 2005, published 2009).
# What was measured:
# Botrytis cinerea = assay: Activity against gray mold on bell pepper leaves caused by Botrytis cinerea, 1 day protective application; type: in vivo; settings: bell pepper seedlings, sprayed 1 day before inoculation, 4 mg/l, rated after 5 days, efficacy in % of untreated control (100% infection), read-out: Observed activity (% infection)
# Method: (§1) The active compounds, separately or jointly, were prepared as a stock solution comprising 25 mg of active compound which was made up to 10 ml using a mixture of acetone and/or dimethyl sulfoxide and the emulsifier Uniperol® EL (wetting agent having an emulsifying and dispersing action based on ethoxylated alkylphenols) in a ratio by volume of solvent/emulsifier of 99:1. The mixture was then made up to 100 ml with water. This stock solution was diluted with the solvent/emulsifier/water mixture described to give the concentration of active compound stated below.
# (§2) Alternatively, the active compounds epoxiconazole and pyraclostrobin were used as a commercial formulation and diluted with water to the stated active compound concentrations.
# (§3) The visually determined percentages of infected leaf areas were converted into efficacies in % of the untreated control.
# (§4) The efficacy (E) is calculated as follows using Abbot's formula: […]
# (§5) α corresponds to the fungicidal infection of the treated plants in % and β corresponds to the fungicidal infection of the untreated (control) plants in %
# (§6) An efficacy of 0 means that the infection level of the treated plants corresponds to that of the untreated control plants; an efficacy of 100 means that the treated plants were not infected.
# (§7) The expected efficacies of active compound mixtures were determined using Colby's formula [R. S. Colby, “Calculating synergistic and antagonistic responses of herbicide combinations”, Weeds 15, 20-22 (1967)] and compared with the observed efficacies. […]
# Bell pepper seedlings of the cultivar “Neusiedler Ideal Elite” were, after 2-3 leaves were well developed, sprayed to runoff point with an aqueous suspension in the active compound concentration stated below. […] After 5 days, the extent of the fungal infection on the leaves could be determined visually in %.
# Phakopsora pachyrhizi = assay: Curative activity against soybean rust caused by Phakopsora pachyrhizi; type: in vivo; settings: soybean seedlings cultivar Oxford, sprayed 2 days after inoculation, 4 mg/l, rated after 14 days, efficacy in % of untreated control (90% infection), read-out: Observed activity (% infection)
# Method: as §1, §2, §3, §4, §7
# Leaves of potted soybean seedlings of the cultivar “Oxford” were inoculated with a spore suspension of soybean rust (Phakopsora pachyrhizi). […] The extent of the rust fungus development on the leaves was then determined
# Puccinia recondite = assay: Protective activity against Puccinia recondite on wheat (brown rust of wheat); type: in vivo; settings: wheat seedlings cultivar Kanzler, sprayed 1 day before inoculation, efficacy in % of untreated control (90% infection), read-out: Observed activity (% infection); for inhibition at 1 µg/mL: 1 mg/l; for inhibition at 4 µg/mL: 4 mg/l
# Method: as §1, §2, §3, §4, §5, §6
# The expected efficacies of active compound mixtures were determined using Colby's formula [R. S. Colby, “Calculating synergistic and antagonistic responses of herbicide combinations”, Weeds 15, 20-22 (1967)] and compared with the observed efficacies.
# E=x+y−x·y/100 Colby's formula • E expected efficacy, expressed in % of the untreated control, when using the mixture of the active compounds A and B at the concentrations a and b; • x efficacy, expressed in % of the untreated control, when using the active compound A at the concentration a; • y efficacy, expressed in % of the untreated control, when using the active compound B at the concentration b;
# Leaves of potted wheat seedlings of the cultivar “Kanzler” were sprayed to runoff point with an aqueous suspension having the concentration of active compound stated below. The next day the treated plants were inoculated with a spore suspension of brown rust of wheat (Puccinia recondite). The plants were then placed in a chamber at high atmospheric humidity (90 to 95%) at 20 to 22° C. for 24 hours. During this time, the spores germinated and the germ tubes penetrated into the leaf tissue. The next day, the test plants were returned to the greenhouse and cultivated at temperatures between 20 and 22° C. and 65 to 70% relative atmospheric humidity for a further 7 days. The extent of the rust fungus development on the leaves was then determined visually.
# [1] = tested on: Erysiphe [syn. Blumeria] graminis forma specialis. tritici; assay: Activity against mildew of wheat caused by Erysiphe [syn. Blumeria] graminis forma specialis. tritici; type: in vivo; settings: wheat seedlings, sprayed 24 hours before dusting with spores, 1 mg/l, rated after 7 days; efficacy in % of untreated control (90% infection); read-out: Observed activity (% infection)
# Method: as §1, with “below. […]” for “below.”
# as §3, §4, §7
# Leaves of potted wheat seedlings were sprayed to runoff point with an aqueous suspension having the active compound concentration stated below. […] After 7 days, the extent of the mildew development was determined visually in % infection of the entire leaf area.
# Alternaria solani = assay: Activity against early blight on tomatoes caused by Alternaria solani; type: in vivo; settings: tomato plants, sprayed 1 day before infection, rated after 5 days, efficacy in % of untreated control (90% infection), read-out: Observed activity (% infection); for inhibition at 63 µg/mL: 63 mg/l
# Method: as §1, §2, §3, §4, §5, §6, §7
# Leaves of potted tomato plants were sprayed to runoff point with an aqueous suspension having the concentration of active compounds stated below. […] After 5 days, the disease on the untreated, but infected control plants had developed to such an extent that the infection could be determined visually in %.
smiles,measurement,setting,value
"Fc1ccc([C@]2(Cn3cncn3)O[C@H]2c2ccccc2Cl)cc1 (racemic) [epoxiconazole, (2RS,3SR)-1-[3-(2-chlorophenyl)-2,3-epoxy-2-(4-fluorophenyl)propyl]-1H-1,2,4-triazole]",inhibition at 4 µg/mL,Botrytis cinerea,10%
"CC1CCN(c2c(-c3c(F)cc(F)cc3F)c(Cl)nc3ncnn23)CC1 [5-chloro-7-(4-methylpiperidin-1-yl)-6-(2,4,6-trifluorophenyl)-[1,2,4]triazolo[1,5-a]pyrimidine]",inhibition at 4 µg/mL,Phakopsora pachyrhizi,28%
"Cn1cc(C(=O)Nc2ccccc2-c2cc(Cl)cc(Cl)c2)c(C(F)(F)F)n1 [No. I.1, 1-methyl-3-trifluoromethyl-N-(ortho-(3,5-dichlorophenyl)phenyl)-pyrazole-4-carboxamide]",melting point,,101 to 105 °C
same,inhibition at 1 µg/mL,Puccinia recondite,52%
same,inhibition at 4 µg/mL,Botrytis cinerea,0%
"Cn1cc(C(=O)Nc2ccccc2-c2cc(Cl)cc(Cl)c2)c(C(F)F)n1 [No. I.4, N-(3′,5′-dichlorobiphenyl-2-yl)-1-methyl-3-difluoromethyl-1H-pyrazole-4-carboxamide]",inhibition at 1 µg/mL,Puccinia recondite,56%
same,inhibition at 1 µg/mL,[1],0%
same,inhibition at 16 µg/mL,Alternaria solani; 16 mg/l,44%
"COc1ccc(C(=CC(=O)N2CCOCC2)c2ccc(Cl)cc2)cc1OC [dimethomorph, 3-(4-chlorophenyl)-3-(3,4-dimethoxyphenyl)-1-morpholin-4-yl-propenone]",inhibition at 4 µg/mL,Puccinia recondite,5%
same,inhibition at 63 µg/mL,Alternaria solani,0%
"COc1cc(C)c(C(=O)c2c(OC)ccc(Br)c2C)c(OC)c1OC [metrafenone, 3′-bromo-2,3,4,6′-tetramethoxy-2′,6-dimethylbenzophenone]",inhibition at 4 µg/mL,Puccinia recondite,0%
same,inhibition at 63 µg/mL,Alternaria solani,0%
"COC(=O)N(OC)c1ccccc1COc1ccn(-c2ccc(Cl)cc2)n1 [pyraclostrobin, methyl N-{2-[1-(4-chlorophenyl)-1H-pyrazol-3-yloxymethyl]phenyl}(N-methoxy)carbamate]",inhibition at 1 µg/mL,Puccinia recondite,0%
same,inhibition at 4 µg/mL,Botrytis cinerea,0%
